Where two headings read alike, the source gives them in different places.
Columns and labels:
Format in all cases: physicochemical
[1] = β-sheet content by ATR-FT-IR; settings: for ß-sheet / %: ATR-FT-IR of lyophilised 1 mg/mL PNF solution, peak integral ratio 1625-1635 cm-1, measured once; for b -sheet / %: Fig. S7 panel A, β-sheet content by ATR-FT-IR
Procedure: For ATR FT–IR spectroscopy measurements, 200 µL of the respective 1 mg/mL PNF solution was lyophilized and the resulting powder used for measurement. All spectra were recorded on a Bruker Tensor 27 spectrometer with a diamond crystal as ATR element (PIKE MiracleTM, spectral resolution 2 cm^-1). Every sample was measured with 64 scans. Data were analyzed with OriginLab software and calculation of β–sheet content was conducted according to a previous report. TEM. For TEM measurements 5 µL of PNF fibrils (1 mg/mL) were placed on copper grids coated with carbon and formvar layer (300 mesh, Plano GmbH). After 10 min incubation time, the grids were staining with 4% uranyl acetate solution for 2.5 min and washed with water. Measurements were performed on a Jeol 1400 electron microscope with 120 kV acceleration voltage. CR Assay. For the determination of the amount of peptide monomer converting into nanostructures the amine reactive dye fluorescamine was used analogous to a previous reported protocol. Briefly, 100 µL of the preformed PNF solution was centrifuged in a Vivaspin 500 tube (3 kDa MWCO) to separate fibers from free peptide monomer (16200 x g, 4 °C, 45 min). The filtrate and 100 μL of the non-filtered PNF sample were lyophilized and dissolved in 30 μL DMSO. 10 μL of the filtrate and non-filtered DMSO samples were submitted in a black UV Star® 384 microliter well–plates (Greiner bio–one) and 3 μL of the fluorescamine solution (10 mg/mL, DMSO) was added to measure the fluorescence enhancement. After 20 min of incubation at RT, fluorescence was recorded on an Infinite® M1000 PRO microplate reader (Tecan) at λem = 470 nm upon excitation at λex = 365 nm with 10 nm bandwidths and multiple reads per well (3×3). Measurements were repeated in triplicates and averaged with standard deviation. All values were calculated as n-fold fluorescence enhancement (DMSO only as a reference was set to 1). The conversion rate CR was defined according to the equation Eq. (3).3 CR=100−100×fluorescenceintensityfiltrate/fluorescenceintensityoriginal[%]

[2] = Turbidity, derived count rate of scattered light; settings: for Count Rate: derived count rate of scattered light (turbidity); for Log10 Count Rate: turbidity, derived count rate of scattered light, data of Figure 2D
[3] = Zeta-potential measurement; settings: for Zeta pot. / mV: 1 mg/mL in PBS pH 7.4 from 10 mg/mL DMSO stock, 1 d RT, 60 µL diluted in 600 µL 1 mM KCl, Zetasizer Nano ZS, Smoluchowski, mean of triplicate
Method in brief: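 Dissolve peptide from DMSO (10 mg/mL stock) into PBS pH 7.4 to 1 mg/mL. Incubate 1 d, RT. Dilute in 1 mM KCl just before reading. Derive zeta potential from mobility (Smoluchowski).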

[4] = zeta-potential of peptide, source data of Figure 2C
[5] = zeta-potential of the peptide assemblies, mean, Figure 3A source data
[6] = zeta potential of peptide assemblies

Row | Substance | ß-sheet / % [1] [%] | b -sheet / % [1] [%] | Count Rate [2] | Log10 Count Rate [2] | Zeta-Pot. [3] | Zeta pot. / mV [3] [mV] | Zeta-Potential / mV [3, 4] [mV] | Zeta-Potential / mV [3, 5] [mV] | Zeta-Pot. [3, 6] | beta sheet ([1]; peptides with TEM 2cat 0) | FTIR ß-sheet content [1] [%]
1 | CKAKAQANMWQ | 39 | 39.38 | 8.967 | 0.9526 | 0.7373 | 0.7 | 2.155 | 0.74 | – | – | –
2 | KFKFQFN | 38 | 38.13 | 50.7 | 1.705 | 12.7 | 12.7 | 10.12 | 12.7 | – | – | –
3 | KIEIQINM | – | 42.99 | 274.8 | 2.439 | – | – | -6.992 | -0.35 | -0.35 | – | –
4 | KIKIKIKIWW | – | 48.82 | 9436 | 3.975 | – | – | 15.83 | 15.4 | 15.4 | 49 | –
5 | KFKFQFFF | – | 49.11 | 3039 | 3.483 | – | – | 15.57 | 13.27 | 13.27 | – | –
6 | QCKFKQFFNM | – | 41.8396 | 10384.7 | 4.016 | 13.67 | – | 15.12 | 13.67 | – | – | –
7 | QCKFKQFF | – | 32.34 | 225.4 | 2.353 | 4.94 | – | 3.089 | 4.94 | – | – | –
8 | CKIKIQI | – | 53 | 2432.9 | 3.386 | – | 12.8 | 13.2 | 12.8 | 12.8 | – | 53
9 | KIKIQIII | – | 45.8425 | 94.97 | 1.978 | – | – | 19.13 | 19.8 | 19.8 | – | –
10 | CKAKAQA | – | 34.73 | 362.7 | 2.56 | – | – | -5.031 | -8.01 | -8.01 | – | –
11 | CKIKQIINMWQ | – | 51 | 8317 | 3.92 | – | – | 10.55 | 13.4 | 13.4 | – | –
12 | QCKAKAQANMWQ | 33 | 32.8999 | 427.5 | 2.631 | -8.05 | -8.1 | -4.813 | -8.05 | – | – | –
13 | KLKLKLQL | – | 42.3363 | 42.87 | 1.632 | – | – | 8.477 | 8.39 | 8.39 | – | –
14 | EIEIQINM | – | 53.87 | 134 | 2.127 | -23.33 | – | -21.58 | -23.33 | – | – | –
15 | KFKFQFF | – | 48.35 | 37.77 | 1.577 | – | – | 6.903 | 6.9 | 6.903 | – | –
16 | KAKAQANM | 33 | 32.8491 | 42.5 | 1.628 | – | -2.6 | -2.065 | -2.62 | -2.62 | – | –
17 | CEIEIQINM | – | 46.31 | 58.43 | 1.767 | – | – | -22.07 | -15.3 | -15.3 | – | –
